Source: ChEMBL document CHEMBL1201862, “PubChem BioAssay data set” (2004)
The source made the active and inactive calls. Unless noted, the rule behind the calls is not given here.

Key:
[1] = target: Tumor necrosis factor (Homo sapiens, UniProt P01375); assay: analog potency on TNFa NF-kB signaling – cell-based, set 3, SAR follow-up (AID 2801); format: functional
[2] = target: T1, Nucleotide-binding oligomerization domain-containing protein 2 (Homo sapiens, UniProt Q9HC29); assay: inhibition of MDP-driven NOD2 NF-kB reporter – cell-based, set 3, SAR follow-up (AID 2799); format: functional
T1 sequence (Q9HC29 whole entry, the tested form may be a part): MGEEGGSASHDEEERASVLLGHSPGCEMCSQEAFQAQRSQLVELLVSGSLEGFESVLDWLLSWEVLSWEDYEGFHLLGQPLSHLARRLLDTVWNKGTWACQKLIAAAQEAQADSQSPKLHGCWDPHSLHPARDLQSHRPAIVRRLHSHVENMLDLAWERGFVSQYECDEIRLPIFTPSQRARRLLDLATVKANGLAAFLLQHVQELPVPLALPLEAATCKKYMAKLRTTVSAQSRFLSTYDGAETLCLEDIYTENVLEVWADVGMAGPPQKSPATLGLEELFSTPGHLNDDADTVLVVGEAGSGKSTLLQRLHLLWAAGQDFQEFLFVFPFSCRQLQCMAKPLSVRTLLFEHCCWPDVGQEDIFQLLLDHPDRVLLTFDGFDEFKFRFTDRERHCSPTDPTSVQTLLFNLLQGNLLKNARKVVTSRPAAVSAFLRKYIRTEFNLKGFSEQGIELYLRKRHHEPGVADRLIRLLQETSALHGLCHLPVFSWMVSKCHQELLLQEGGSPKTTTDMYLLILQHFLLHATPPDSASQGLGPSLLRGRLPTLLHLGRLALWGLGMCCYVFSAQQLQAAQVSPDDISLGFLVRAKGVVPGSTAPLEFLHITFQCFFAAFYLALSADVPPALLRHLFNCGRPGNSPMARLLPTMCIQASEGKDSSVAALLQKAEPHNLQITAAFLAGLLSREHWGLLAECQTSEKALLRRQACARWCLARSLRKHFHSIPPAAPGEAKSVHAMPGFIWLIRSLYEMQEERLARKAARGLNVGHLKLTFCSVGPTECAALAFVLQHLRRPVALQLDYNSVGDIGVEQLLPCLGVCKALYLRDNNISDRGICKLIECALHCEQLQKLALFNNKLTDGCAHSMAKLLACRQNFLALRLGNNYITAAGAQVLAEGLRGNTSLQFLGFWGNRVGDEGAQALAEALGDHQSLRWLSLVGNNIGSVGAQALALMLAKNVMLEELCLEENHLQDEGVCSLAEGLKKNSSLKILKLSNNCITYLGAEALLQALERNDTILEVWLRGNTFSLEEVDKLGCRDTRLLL

[3] = system: HEK293; assay: SAR analysis of compounds that are cytotoxic to HEK293 - Set 2. [Related pubchem assays (depositor defined):AID1575, AID1578, AID1849, AID2001, AID2333, AID2334, AID2335, AID2337, AID2800]; format: functional, cell-based; conditions: Homo sapiens
[4] = target: T2, Nucleotide-binding oligomerization domain-containing protein 1 (Homo sapiens, UniProt Q9Y239); assay: SAR analysis of NF-kappaB dependent luciferase using DAP as an inducer - Set 2. [Related pubchem assays (depositor defined):AID1566, AID1575, AID1578, AID1579, AID1849, AID1852, AID2264]; format: functional
T2 sequence (Q9Y239 whole entry): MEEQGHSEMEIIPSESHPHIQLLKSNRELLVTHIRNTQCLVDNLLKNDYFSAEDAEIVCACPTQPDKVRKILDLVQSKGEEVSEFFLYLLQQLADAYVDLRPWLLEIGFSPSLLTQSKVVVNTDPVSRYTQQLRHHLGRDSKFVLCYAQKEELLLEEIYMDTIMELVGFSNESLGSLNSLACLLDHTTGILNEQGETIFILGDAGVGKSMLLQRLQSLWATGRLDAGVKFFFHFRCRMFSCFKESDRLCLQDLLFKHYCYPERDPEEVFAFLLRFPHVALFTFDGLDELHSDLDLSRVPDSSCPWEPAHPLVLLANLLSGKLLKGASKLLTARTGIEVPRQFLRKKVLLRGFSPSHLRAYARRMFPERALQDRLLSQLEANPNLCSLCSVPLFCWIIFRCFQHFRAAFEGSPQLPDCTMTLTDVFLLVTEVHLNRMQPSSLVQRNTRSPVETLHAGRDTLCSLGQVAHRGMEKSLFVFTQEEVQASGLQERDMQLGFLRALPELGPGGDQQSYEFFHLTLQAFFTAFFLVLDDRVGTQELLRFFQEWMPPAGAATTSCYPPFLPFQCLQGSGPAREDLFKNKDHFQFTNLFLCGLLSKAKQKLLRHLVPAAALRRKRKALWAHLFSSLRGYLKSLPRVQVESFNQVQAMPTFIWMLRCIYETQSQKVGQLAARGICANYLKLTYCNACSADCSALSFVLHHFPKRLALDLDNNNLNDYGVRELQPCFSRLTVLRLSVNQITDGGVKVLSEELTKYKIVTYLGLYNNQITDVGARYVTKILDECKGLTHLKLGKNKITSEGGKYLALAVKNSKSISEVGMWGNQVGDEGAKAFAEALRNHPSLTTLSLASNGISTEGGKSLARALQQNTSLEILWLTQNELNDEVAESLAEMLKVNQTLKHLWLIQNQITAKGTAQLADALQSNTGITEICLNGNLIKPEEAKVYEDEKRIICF

[5] = target: T2, Nucleotide-binding oligomerization domain-containing protein 1; assay: SAR analysis of compounds that inhibit NOD1 - Set 3. [Related pubchem assays (depositor defined):AID1566, AID1575, AID1578, AID1849, AID1852, AID2333, AID2335, AID2466]; format: functional
[6] = target: T3, Interleukin-8 (Homo sapiens, UniProt P10145); assay: SAR analysis of Tumor necrosis factor alpha (TNF-alpha) induced IL-8 secretion in MCF-7/NOD1 cells - Set 2. [Related pubchem assays (depositor defined):AID1575, AID2250, AID2260]; format: functional, cell-based
T3 sequence (P10145 whole entry): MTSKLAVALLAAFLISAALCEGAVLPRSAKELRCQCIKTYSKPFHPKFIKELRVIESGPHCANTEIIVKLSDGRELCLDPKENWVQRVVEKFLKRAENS

[7] = target: T1, Nucleotide-binding oligomerization domain-containing protein 2; assay: inhibition of NOD2 signaling – set 2, SAR follow-up (AID 2475); format: functional
[8] = system: HEK293; assay: SAR analysis of compounds that are cytotoxic to HEK293 - Set 3. [Related pubchem assays (depositor defined):AID1575, AID1578, AID1848, AID1849, AID2001, AID2333, AID2334, AID2335, AID2337, AID2469]; format: functional, cell-based; conditions: Homo sapiens
[9] = target: T3, Interleukin-8; assay: SAR analysis of GM-Tri-DAP induced IL-8 secretion in MCF-7/NOD1 cells - Set 2. [Related pubchem assays (depositor defined):AID1575, AID1578, AID2333]; format: functional, cell-based
[10] = target: T4, E3 ubiquitin-protein ligase XIAP (Homo sapiens, UniProt P98170); assay: SAR analysis of Antagonists of IAP-family anti-apoptotic proteins. [Related pubchem assays (depositor defined):AID1018, AID1449, AID1513, AID1514, AID1638]
T4 sequence (P98170 whole entry, the tested form may be a part): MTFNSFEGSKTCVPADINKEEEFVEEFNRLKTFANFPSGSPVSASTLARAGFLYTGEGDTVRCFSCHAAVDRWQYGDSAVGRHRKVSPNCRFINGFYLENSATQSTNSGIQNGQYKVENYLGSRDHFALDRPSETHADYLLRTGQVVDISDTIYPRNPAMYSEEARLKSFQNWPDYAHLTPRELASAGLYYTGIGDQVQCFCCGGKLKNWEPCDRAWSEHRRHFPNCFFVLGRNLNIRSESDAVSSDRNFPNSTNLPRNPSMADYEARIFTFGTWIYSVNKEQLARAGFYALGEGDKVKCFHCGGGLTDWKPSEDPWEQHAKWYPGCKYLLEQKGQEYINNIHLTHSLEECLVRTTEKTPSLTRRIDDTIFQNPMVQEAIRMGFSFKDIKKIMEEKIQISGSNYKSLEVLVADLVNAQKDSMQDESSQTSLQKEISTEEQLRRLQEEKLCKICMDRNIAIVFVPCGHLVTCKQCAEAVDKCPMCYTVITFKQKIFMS

[11] = target: T4, E3 ubiquitin-protein ligase XIAP; assay: SAR analysis of Antagonists of XIAP-Bir3 domain of IAP-family anti-apoptotic proteins. [Related pubchem assays (depositor defined):AID1018, AID1449, AID1513, AID1514, AID1638]
[12] = target: T5, Kappa-type opioid receptor (Homo sapiens, UniProt P41145); assay: SAR analysis of small molecule antagonists of the kappa opioid receptor via a luminescent beta-arrestin assay - Set 4. [Related pubchem assays (depositor defined):AID1777, AID1778, AID1785, AID1786, AID1966, AID2133, AID2136, AID2285]; format: functional
T5 sequence (P41145 whole entry): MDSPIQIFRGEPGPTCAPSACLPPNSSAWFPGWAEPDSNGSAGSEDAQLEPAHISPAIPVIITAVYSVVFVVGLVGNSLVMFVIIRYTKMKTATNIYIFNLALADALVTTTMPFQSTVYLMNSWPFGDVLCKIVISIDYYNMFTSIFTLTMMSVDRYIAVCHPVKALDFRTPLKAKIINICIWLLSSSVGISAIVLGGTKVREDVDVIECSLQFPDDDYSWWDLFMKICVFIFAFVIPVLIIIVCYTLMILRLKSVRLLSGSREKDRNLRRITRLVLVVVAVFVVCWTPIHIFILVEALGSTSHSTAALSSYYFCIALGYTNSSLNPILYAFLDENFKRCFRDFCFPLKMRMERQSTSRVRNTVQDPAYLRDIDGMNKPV

[13] = target: T5, Kappa-type opioid receptor; assay: SAR analysis of small molecule antagonists of the kappa opioid receptor via a luminescent beta-arrestin assay - Set 5. [Related pubchem assays (depositor defined):AID1778, AID1785]; format: functional
[14] = PhoP promoter GFP reporter reduction in Typhimurium – purified and synthesized compounds, set 2, PhoP regulon inhibitor project, dose response (AID 2831); format: functional

Tumor necrosis factor, sequence (P01375 whole entry, the tested form may be a part): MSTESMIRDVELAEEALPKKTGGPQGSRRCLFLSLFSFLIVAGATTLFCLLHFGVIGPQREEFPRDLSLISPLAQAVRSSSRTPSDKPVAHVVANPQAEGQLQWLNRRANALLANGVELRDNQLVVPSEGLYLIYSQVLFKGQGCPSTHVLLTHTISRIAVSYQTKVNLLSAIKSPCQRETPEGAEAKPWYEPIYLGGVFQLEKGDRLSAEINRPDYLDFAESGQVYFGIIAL

CCCCCn1c(SCCc2ccccc2)nc2c1c(=O)[nH]c(=O)n2C
IC50 [1]: > 20 µM (inactive) | IC50 [2]: > 20 µM (inactive) | IC50 [3]: > 20 µM (inactive) | IC50 [4]: > 25 µM (inactive) | IC50 [5]: 1.74 µM (active) | IC50 [6]: > 25 µM (inactive) | IC50 [7]: > 20 µM (inactive) | IC50 [8]: > 20 µM (inactive) | IC50 [9]: 4.1 µM (active)

CN[C@@H](C)C(=O)N[C@H](C(=O)N[C@@H](C)C(=O)NNc1ccccc1)C(C)C
IC50 [10]: 4.7 µM (active) | IC50 [11]: 132 µM (active)

Cc1ccc(S(=O)(=O)NCc2ccc(C(=O)NCCN(Cc3ccc([N+](=O)[O-])cc3)C(C)C)cc2)cc1
IC50 [12]: > 20 µM (inactive) | IC50 [13]: > 20 µM (inactive)

OC1=C2C(=Nc3ccccc3SC2c2ccco2)c2ccccc21 (centres undefined)
IC50 [14]: > 125 µM (active)
